Experimental data reported in US10703756B2, “Pyrrolo[2,3-D]pyrimidinyl, pyrrolo[2,3-B]pyrazinyl, pyrrolo[2,3-B]pyridinyl acrylamides and epoxides thereof” (Pfizer Inc., priority 2015, dated 2020).
Where two headings read alike, the source gives them in different places.

Assays:
[1] = Stability of JAK3 Covalent Inhibitors in Human Whole Blood; type: in vitro ADME; conditions: both sexes, 1 μM test compound, 37° C., 180 min incubation, read-out: Human blood stability t1/2
Description: Stability of JAK3 Covalent Inhibitors in Rat and Human Whole Blood
Rat blood was collected from 3 male Sprague-Dawley rats (200-250 g, Charles River Laboratories) and pooled for each study. Human blood was collected from healthy subjects at the Occupational Health & Wellness Center at Pfizer, Groton, Conn. and pooled for each study. Both rat and human blood was collected freshly into K2-EDTA tubes and kept on ice. An aliquot of the blood was transferred to microtubes and pre-warmed for 10 min at 37° C. using a heat block. The test compound was then added (1 μM final concentration) and the incubation was continued for 180 min at 37° C. in duplicates. An aliquot of the incubation mixture was removed at designated time points during the course of the incubation, mixed with an aliquot of acetonitrile containing an internal standard, vortexed and centrifuged. The resulting supernatants were removed and subjected to LC-MS/MS analyses to determine parent compound concentrations. Peak area ratios of the parent compound vs the internal standard were used to determine the % of parent compound remaining vs incubation time.

[2] = target: T1, JAK3 enzyme (Homo sapiens, UniProt P52333); experiment: JAK Caliper Enzyme Assay at 1 mM ATP; type: biochemical
T1 sequence (P52333 1-1124): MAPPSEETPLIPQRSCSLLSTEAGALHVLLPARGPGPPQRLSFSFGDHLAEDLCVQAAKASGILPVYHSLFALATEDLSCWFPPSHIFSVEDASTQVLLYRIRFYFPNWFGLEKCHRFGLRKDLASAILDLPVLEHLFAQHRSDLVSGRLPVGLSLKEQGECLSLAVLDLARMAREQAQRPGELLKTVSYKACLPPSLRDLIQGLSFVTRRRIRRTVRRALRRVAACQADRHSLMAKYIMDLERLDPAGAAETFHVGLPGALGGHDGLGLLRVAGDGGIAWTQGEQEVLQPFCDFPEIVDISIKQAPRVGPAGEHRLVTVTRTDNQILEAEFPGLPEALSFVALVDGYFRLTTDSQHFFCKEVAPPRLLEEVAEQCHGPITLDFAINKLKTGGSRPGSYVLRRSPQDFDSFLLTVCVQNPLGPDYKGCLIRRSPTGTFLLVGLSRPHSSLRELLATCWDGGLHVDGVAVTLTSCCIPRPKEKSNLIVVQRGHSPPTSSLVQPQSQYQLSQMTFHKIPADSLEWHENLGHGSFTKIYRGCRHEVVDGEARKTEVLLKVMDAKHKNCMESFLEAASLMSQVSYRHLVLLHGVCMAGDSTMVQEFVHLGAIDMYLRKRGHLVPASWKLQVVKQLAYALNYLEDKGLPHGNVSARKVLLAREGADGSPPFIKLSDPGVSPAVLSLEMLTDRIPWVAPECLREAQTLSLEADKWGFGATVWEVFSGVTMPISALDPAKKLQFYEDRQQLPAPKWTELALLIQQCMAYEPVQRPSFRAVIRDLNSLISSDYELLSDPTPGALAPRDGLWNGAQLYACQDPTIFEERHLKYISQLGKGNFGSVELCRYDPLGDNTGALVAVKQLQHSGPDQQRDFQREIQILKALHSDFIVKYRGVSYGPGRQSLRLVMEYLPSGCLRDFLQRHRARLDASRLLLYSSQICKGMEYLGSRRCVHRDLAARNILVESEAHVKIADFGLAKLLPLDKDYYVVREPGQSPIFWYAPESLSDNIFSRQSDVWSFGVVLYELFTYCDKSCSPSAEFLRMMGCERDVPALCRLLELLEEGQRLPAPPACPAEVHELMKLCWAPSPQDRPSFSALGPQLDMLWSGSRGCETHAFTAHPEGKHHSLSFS
Method in brief: (§1)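 11-pt ½-log cpd titration in DMSO (top 600 μM, pre-assay); enzyme conc/incubation adjusted per prep → 20-30% peptide phosphorylation; phospho vs non-phospho peptide read by chip-based electrophoretic separation.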

[3] = target: T1, JAK3 enzyme; experiment: JAK Caliper Enzyme Assay at 4 μM ATP; type: biochemical
Method in brief: as §1

[4] = test system: IL-15 induced P-STAT5 in human PBMC; experiment: PBMC IL-15 Induced P-STAT5; type: cell-based
Method in brief: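 Thawed human PBMC, rested in human plasma, were preincubated 15 min at 37 °C with compound (0.2% DMSO), then stimulated 15 min with IL-15 at 41 ng/mL final. After paraformaldehyde fixation and methanol permeabilisation, Alexa Fluor 647 anti-STAT5 staining overnight at 4 °C was analysed by flow cytometry on total lymphocytes.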

[5] = human PBMC, IL-15 final 41 ng/mL, read-out: PBMC IL15_pSTAT5_IC50
[6] = Homo sapiens, PBMC, read-out: PBMC IL15_pSTAT5_IC50 (nM)

SMILES	half-life at 1 μM [1] [h]	IC50 [2] [nM]	IC50 [3] [nM]	IC50 [4, 5] [nM]	IC50 [4, 6] [nM]
C=CC(=O)N1CCCC(Nc2cnc3[nH]cc(C(=O)NCC)c3n2)C1 (racemic) [Example 34, Racemic-2-[(1-acryloylpiperidin-3-yl)amino]-N-ethyl-5H-pyrrolo[2,3-b]pyrazine-7-carboxamide]	> 6	105	0.501	580	–
C=CC(=O)N1CC[C@H](Nc2cnc3[nH]cc(C(=O)NCC)c3n2)[C@@H](OC)C1 (single isomer, unassigned) [Example 27]	> 6	19	0.468	382	–
C=CC(=O)N1C[C@H](Nc2cnc3[nH]cc(C(=O)N[C@H](C)COC)c3n2)CC[C@@H]1C (single isomer, unassigned) [Example 69]	> 6	137	0.782	2610	–
C=CC(=O)N1CC[C@@H](Nc2cnc3[nH]cc(C(=O)N[C@@H](C)COC)c3n2)C[C@H]1C (stereo in doubt) [Example 56, 2-{[(2R,4R)-1-acryloyl-2-methylpiperidin-4-yl]amino}-N-[(2S)-1-methoxypropan-2-yl]-5H-pyrrolo[2,3-b]pyrazine-7-carboxamide]	> 6	70	0.927	–	1600
C=CC(=O)N1CC[C@H](Nc2cnc3[nH]cc(C(=O)N[C@@H](C)COC)c3n2)C[C@@H]1C (relative stereo) [Example 55, 2-{[(2S,4S)-1-acryloyl-2-methylpiperidin-4-yl]amino}-N-[(2S)-1-methoxypropan-2-yl]-5H-pyrrolo[2,3-b]pyrazine-7-carboxamide]	> 6	192	2.21	–	2260
C=CC(=O)N1CC(Nc2cnc3[nH]cc(C(=O)NCC)c3n2)CCC1C (single isomer, unassigned) [Example 76]	> 6	136	0.566	1150	–
C=CC(=O)N1CC[C@H](Nc2cnc3[nH]cc(C(=O)NCC)c3n2)[C@@H](O)C1 (single isomer, unassigned) [Example 32]	> 6	138	0.848	9100	–
C=CC(=O)N1CC[C@@H](Nc2cnc3[nH]cc(C(=O)NCC)c3n2)[C@H](C)C1 (racemic) [Example 43, Trans-racemic-2-{[(3R,4R)-1-acryloyl-3-methylpiperidin-4-yl]amino}-N-ethyl-5H-pyrrolo[2,3-b]pyrazine-7-carboxamide]	3.73	50	0.258	411	–
C=CC(=O)N1CC[C@@H](Nc2cnc3[nH]cc(C(=O)NCC)c3n2)C1 (single isomer, unassigned) [Example 243]	> 6	141	0.586	1730	–
C=CC(=O)N1C[C@@H](O)C[C@@H](Nc2ncnc3[nH]cc(C#N)c23)C1 [Example 113, 4-{[(3R,5S)-1-Acryloyl-5-hydroxypiperidin-3-yl]amino}-7H-pyrrolo[2,3-d]pyrimidine-5-carbonitrile]	> 6	589	2.4	1940	–
C=CC(=O)N1C[C@@H](Nc2cnc3[nH]cc(C(=O)N[C@H](C)COC)c3n2)CC[C@H]1C (racemic) [Example 68, Cis-racemic-2-{[1-acryloyl-6-methylpiperidin-3-yl]amino}-N-[(2R)-1-methoxypropan-2-yl]-5H-pyrrolo[2,3-b]pyrazine-7-carboxamide]	> 6	247	2.17	4570	–
C=CC(=O)N1CC[C@H](Nc2cnc3[nH]cc(C(=O)NCC(F)(F)F)c3n2)C1 [Example 231, 2-{[(3S)-1-acryloylpyrrolidin-3-yl]amino}-N-(2,2,2-trifluoroethyl)-5H-pyrrolo[2,3-b]pyrazine-7-carboxamide]	5.35	85	0.322	353	–
C=CC(=O)N1CC[C@H](Nc2cnc3[nH]cc(C(=O)NCC)c3n2)[C@H](C)C1 (single isomer, unassigned) [Example 39]	> 6	202	1.01	2380	–

Further lines, with some results ahead:

half-life at 1 μM [1] [h]	IC50 [2] [nM]	IC50 [3] [nM]	SMILES	IC50 [4, 5] [nM]	IC50 [4, 6] [nM]
2.63	106	1.49	C=CC(=O)N1CCCC1COc1cnc2[nH]cc(C(=O)N[C@@H](C)COC)c2n1 (mixture of isomers) [Example 7, Racemic-2-[(1-acryloylpyrrolidin-2-yl)methoxyl]-N-[(2S)-1-methoxypropan-2-yl]-5H-pyrrolo[2,3-b]pyrazine-7-carboxamide]	403	–
4.58	23	0.124	C=CC(=O)N1CCC(Nc2cnc3[nH]cc(C(=O)NCC(C)C)c3n2)C1 (stereo in doubt) [Example 256, 2-{[(3S)-1-acryloylpyrrolidin-3-yl]amino}-N-(2-methylpropyl)-5H-pyrrolo[2,3-b]pyrazine-7-carboxamide]	531	–
2.97	130	0.448	C=CC(=O)N1CCC(N(C)c2cnc3[nH]cc(C(=O)NCC)c3n2)CC1 [Example 60, 2-[(1-acryloylpiperidin-4-yl)(methyl)amino]-N-ethyl-5H-pyrrolo[2,3-b]pyrazine-7-carboxamide]	379	–
2.78	153	1.02	C=CC(=O)N1CC[C@H](Oc2cnc3[nH]cc(C(=O)N[C@@H](C)COC)c3n2)C1 [Example 52, 2-{[(3S)-1-acryloylpyrrolidin-3-yl]oxy}-N-[(2S)-1-methoxypropan-2-yl]-5H-pyrrolo[2,3-b]pyrazine-7-carboxamide]	627	–
4.8	160	1.32	C=CC(=O)N1C[C@@H](Oc2cnc3[nH]cc(C(=O)N[C@@H](C)COC)c3n2)CC[C@H]1C (racemic) [Example 80, Cis-racemic-2-{[1-acryloyl-6-methylpiperidin-3-yl]oxy}-N-[(2S)-1-methoxypropan-2-yl]-5H-pyrrolo[2,3-b]pyrazine-7-carboxamide]	829	–
4.86	1100	5.89	C=CC(=O)N1CCC(Oc2cnc3[nH]cc(-c4ncn(C(C)C)n4)c3n2)CC1 [Example 124, 1-[4-({7-[1-(Propan-2-yl)-1H-1,2,4-triazol-3-yl]-5H-pyrrolo[2,3-b]pyrazin-2-yl}oxy)piperidin-1-yl]prop-2-en-1-one]	2430	–
> 6	1320	14	C=CC(=O)N1CC[C@@H](Oc2cnc3[nH]cc(C(=O)NCC)c3n2)C1 [Example 87, (R)-2-[(1-acryloylpyrrolidin-3-yl)oxy]-N-ethyl-5H-pyrrolo[2,3-b]pyrazine-7-carboxamide]	6490	–
